{"source": "patent US12606559B2", "about": "“JAK inhibitor compounds, methods for synthesizing same and use thereof” (GALDERMA HOLDING SA, priority 2020, dated 2026)", "key": {"[1]": {"experiment": "Protein binding analysis (RED), human plasma", "format": "in vitro ADME", "settings": "5 μM, RED 4 h", "experimental": "(§1) The protein binding was assessed in plasma of Human, male balb-c mice, male Wistar Han rat, male Gottingen minipig by rapid equilibrium dialysis (RED) devices. After the plasma and buffer phosphate 50 mM pH7.4 were equilibrated at 37° C., the compound was added to plasma to reach a final concentration of 5 μM. An aliquot of plasma was withdrawn immediately. Equilibration under mild agitation was continued for 4 h. The plasma and buffer were sampled and samples were quenched with 4 volumes of acetonitrile and centrifuged. Supernatant was quantified in HPLC/MS/MS to calculate the recovery and the percentage of compound dissolved in the buffer (unbound) and bound to plasma proteins."}, "[2]": {"experiment": "Protein binding analysis (RED), mouse plasma", "format": "in vitro ADME, male balb-c mice", "settings": "5 μM, RED 4 h", "experimental": "as §1"}, "[3]": {"system": "IL-6 induced Phospho-STAT3 (Tyr705) in TF-1 cells", "experiment": "In vitro cellular pSTAT3 assay, IL-6 stimulated TF-1 cells", "format": "cell-based", "settings": "Homo sapiens"}, "[4]": {"experiment": "Intrinsic clearance in human hepatocytes", "format": "in vitro ADME", "settings": "2.5 μM", "experimental": "(§2) The intrinsic clearance was assessed in cryopreserved Hepatocytes obtained by Human livers donors of mix gender pooled together, male balb-c mouse, male Wistar Han rats and male Göttingen minipig, by looking at the parent compound disappearance. The incubations were performed using a final concentration of viable cells of 1 million/ml (viability above 70%) and test item of 2.5 μM. Incubations were followed up to 2 h. Aliquotes were withdrawn at different time points and reaction quenched with acetonitrile. After centrifugation the supernatant was analyzed by HPLC/MS to quantify the remaining amount of parent in comparison with time 0. The clearance was calculated by fitting the log of the percentage remaining with Graphpad Prism ver.7."}, "IL6 signalling in hWB": {"system": "IL6 signalling in hWB", "experiment": "hWB assay, IL6", "format": "cell-based, human", "settings": "Homo sapiens, read-out: hWB assay: IC50 IL6"}, "[5]": {"experiment": "Kinetic aqueous solubility", "format": "physicochemical"}, "[6]": {"experiment": "Thermodynamic solubility PG_H2O pH 6 2/8", "format": "physicochemical", "settings": "amorphous, no cristalline material available"}, "[7]": {"experiment": "Protein binding analysis (RED), rat plasma", "format": "in vitro ADME, male Wistar Han rat", "settings": "5 μM, RED 4 h", "experimental": "as §1"}, "[8]": {"experiment": "Intrinsic clearance in rat hepatocytes", "format": "in vitro ADME, male Wistar Han rats", "settings": "2.5 μM", "experimental": "as §2"}, "[9]": {"experiment": "Intrinsic clearance in minipig hepatocytes", "format": "in vitro ADME, male Göttingen minipig", "settings": "2.5 μM", "experimental": "as §2"}, "[10]": {"experiment": "In vivo pharmacokinetic analysis in rat, iv", "parameters": "species or system male Wistar Han rat", "settings": "iv 1 mg/kg", "experimental": "(§3) One male Wistar Han rat. Compound was administered intravenously to fed animal at a target dose of 1 mg/kg, dose volume: 2 mL/kg, in DMSO/hydroxypropyl-beta-cyclodextrin 20% in phosphate buffer 60 mM pH 7 (5:95). Blood samples were collected at various time points. Blood samples were then assayed using a method based upon protein precipitation with acetonitrile followed by LC/MS/MS analysis. Non-compartmental methods were used for pharmacokinetic analysis of blood concentration versus time data"}, "[11]": {"experiment": "Human skin ex vivo: flux through skin and dermis concentration (Franz cells)", "format": "in vitro ADME", "settings": "PG/H2O cream 1 mg/mL"}, "[12]": {"experiment": "Systemic level in PD/IL6 mouse topical dose response", "settings": "topical 10 mM, PG/Acetone/Transcutol"}, "[13]": {"experiment": "Intrinsic clearance in mouse hepatocytes", "format": "in vitro ADME, male balb-c mouse", "settings": "2.5 μM", "experimental": "as §2"}, "[14]": {"system": "44 targets (binding and enzyme/uptake assays)", "experiment": "CEREP Safety Screen-44", "settings": "10 μM", "experimental": "An in vitro pharmacology assay was conducted to assess the capability of the compounds to interact with different pharmacological targets when tested at 10 μM in different binding and enzyme/uptake assays. The included targets are indicative of potential effects in major organs and drug-drug interactions.\nCompound binding was calculated as a % inhibition of the binding of a radioactively labelled ligand specific for each target. […] […]."}, "[15]": {"experiment": "In vivo pharmacokinetic analysis in minipig, iv", "parameters": "species or system male Göttingen minipigs", "settings": "iv 1 mg/kg", "experimental": "as §3, with “Three” for “One”, “Göttingen minipigs.” for “Wistar Han rat.”, “animals” for “animal”, “volume 1” for “volume: 2”, “DMSO: hydroxypropyl-β-cyclodextrin” for “DMSO/hydroxypropyl-beta-cyclodextrin”, “data.” for “data”"}}, "note": "Entries after “also recorded” stand apart in the source; their conditions may differ. Where two headings read alike, the source gives them in different places."}
{"compound": "N#CC[C@H](C1CCCC1)n1cc(-c2ncnc3[nH]ccc23)cn1", "note": "[Ruxolitinib, reference compound]", "values": [{"measurement": "hFU", "setting": "[1]", "result": 4, "unit": "%"}, {"measurement": "mFU", "setting": "[2]", "result": 7.7, "unit": "%"}, {"measurement": "IC50", "setting": "[3]; TF-1, read-out: Cellular Assay: IC50 IL6", "result": 8, "unit": "nM"}, {"measurement": "IC50", "setting": "[3]; TF-1, read-out: Free IC50", "result": 200, "unit": "nM"}, {"measurement": "Intr. Clear. h heps", "setting": "[4]", "result": 4.4, "unit": "microL/min/10 6 cells"}, {"measurement": "IC50", "setting": "IL6 signalling in hWB", "result": 6.9, "unit": "µM"}, {"measurement": "Kinetic aq sol", "setting": "[5]", "result": "232/ND (no cristalline microM"}, {"measurement": "Sol PG_H2O pH 6 2/8, amorphous material", "setting": "[6]", "result": "material available-1 mM; also recorded: (0.3 mg/mL)-amorphous)"}, {"measurement": "rFU", "setting": "[7]", "result": 13, "unit": "%"}, {"measurement": "Intr. Clear. rheps", "setting": "[8]", "result": 300, "unit": "microL/min/10 6 cells"}, {"measurement": "Intr. Clear. minipig heps", "setting": "[9]", "result": 141, "unit": "microL/min/10 6 cells"}, {"measurement": "iv PK rat: Cl (value in brackets, %)", "setting": "[10]", "result": 51, "unit": "%"}, {"measurement": "measured flux 6-24 hr", "setting": "[11]", "result": 5.3, "unit": "ng/cm^2/hr"}, {"measurement": "PD/IL6 mouse top DR 0.01-10 mM: Systemic level @ 10 mM - 2 hrs", "setting": "[12]", "result": 81, "unit": "nM"}, {"measurement": "Intr. Clear. mheps", "setting": "[13]", "result": 150, "unit": "microL/min/10 6 cells"}, {"measurement": "Safety panel (Cerep): 44 targets % inh @ 10 microM, Nb of targets > 50% inh", "setting": "[14]", "result": "0/44"}, {"measurement": "iv PK minipig: Cl (value in brackets, %)", "setting": "[15]", "result": 68, "unit": "%"}]}
